Laboratory results reported in patent US11040028B2, “Penicinotam derivative, preparation method and use thereof” (OCEAN UNIVERSITY OF CHINA, priority 2017, dated 2021).

Experiments:
Assay type in all cases: cell-based
[1] = tested on: human dermal fibroblasts CCC-ESF-1; test: Anti-fibrosis activity test: inhibition of proliferation of human dermal fibroblasts CCC-ESF-1 (CCK-8); details: Fibroblast
How it was run: (§1)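 IC50 values derive from CCK-8 absorbance (450 nm, 2 h reagent incubation) measured after a 48 h exposure to test compounds. Before dosing, cells plated at 2×10^4 cells/mL had attached for 24 h under 5% CO2 at 37° C; triplicate wells per concentration.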

[2] = tested on: mouse macrophages (RAW264.7); test: Lipopolysaccharide-induced NO secretion in macrophages (Griess); details: Mus musculus, RAW264.7, 24 h, RAW264.7, LPS 1 μg/ml, a/b isomers given as first/second symbol, read-out: IC50 (μM), inhibition of lipopolysaccharide-induced NO secretion in macrophages
How it was run: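 Percent inhibition of NO release was measured by Griess absorbance at 548 nm in supernatants. Cells were mouse RAW264.7 macrophages in 10% FBS DMEM, treated with graded compound concentrations and activated by LPS (1 μg/ml) for 24 h.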

[3] = tested on: human fibrosarcoma cells HT-1080; test: Anti-fibrosis activity test: inhibition of proliferation of human fibrosarcoma cells HT-1080 (CCK-8); details: Homo sapiens, HT-1080, 48 h
How it was run: as §1

[4] = tested on: human lung fibroblasts HFL1; test: Anti-fibrosis activity test: inhibition of proliferation of human lung fibroblasts HFL1 (CCK-8); details: Homo sapiens, HFL1, 48 h
How it was run: as §1

[5] = tested on: human hepatic stellate cells LX-2; test: Anti-fibrosis activity test: inhibition of proliferation of human hepatic stellate cells LX-2 (CCK-8); details: Homo sapiens, 48 h
How it was run: as §1

BHK-21 cells = test: Anti-fibrosis activity test: inhibition of BHK-21 cell proliferation (CCK-8); details: Mesocricetus auratus, BHK-21, 48 h
How it was run: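 Proliferation inhibition was read as CCK-8 absorbance at 450 nm (2-hour development) relative to untreated blank, with IC50 fitted from the curve. Before that, adhered cells (2×10^4 cells/mL, 24 hours) had 48 hours' treatment at several concentrations, in triplicate, at 37° C/5% CO2; pirfenidone was the reference.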

[6] = tested on: cardiac fibroblast RAT-iCell-C002; test: Anti-fibrosis activity test: inhibition of proliferation of cardiac fibroblast RAT-iCell-C002 (CCK-8); details: Cardiac fibroblast, 48 h
How it was run: as §1

[7] = tested on: human embryonic lung fibroblast IMR-90; test: Anti-fibrosis activity test: inhibition of proliferation of human embryonic lung fibroblast IMR-90 (CCK-8)
How it was run: as §1

NF-κB = test: Immunological activity test: inhibition of NF-κB activity; details: initial concentration of 30 μM; a/b isomers given as first/second symbol; read-out: IC50 (μM), inhibitory activity against NF-κB
How it was run: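 Initial screen at 30 μM; parthenolide positive control. IC50s derived from follow-up analysis.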

[8] = human dermal fibroblasts CCC-ESF-1, CCK-8, 48 hours
[9] = human fibrosarcoma cells HT-1080, CCK-8, 48 hours
[10] = human lung fibroblasts HFL1, CCK-8, 48 hours
[11] = human hepatic stellate cells LX-2, CCK-8, 48 hours
[12] = CCK-8, 48 hours after administration
[13] = cardiac fibroblast RAT-iCell-C002, CCK-8, 48 hours
[14] = human embryonic lung fibroblast IMR-90, CCK-8, 48 hours

SMILES | IC50 [1, 8] | IC50 [2] | IC50 [3, 9] | IC50 [4, 10] | IC50 [5, 11] | IC50 (BHK-21 cells; [12]) | IC50 [6, 13] | IC50 [7, 14] | IC50 (NF-κB) | IC50 ([1]; Homo sapiens, CCC-ESF-1 cells, 48 h, CCK-8) | IC50 ([3]; HT-1080 cells, 48 h, CCK-8) | IC50 ([4]; HFL1 cells, 48 h, CCK-8) | IC50 ([5]; LX-2, 48 h, LX-2 cells, CCK-8) | IC50 (BHK-21 cells; 48 h, CCK-8) | IC50 ([6]; RAT-iCell-C002 cells, CCK-8) | IC50 ([7]; Homo sapiens, IMR-90 cells, 48 h, CCK-8)
O=C1c2c(nc3ccccc3c2OCCN2CCNCC2)-c2cccn21 [Compound 98b, 9-(2-(piperazin-1-yl)ethoxy)-10H-pyrrolizino[1,2-b]quinolin-10-one] | 0.05 to 5 mM | 1 to 10 µM | 0.05 to 5 mM | 0.05 to 5 mM | 0.05 to 5 mM | 0.05 to 5 mM | 0.05 to 5 mM | 0.05 to 5 mM | 1 to 10 µM |  |  |  |  |  |  | 
Cn1c2c(c(=O)c3ccc(N4CCNCC4)cc31)C(=O)n1cccc1-2 [Compound 328a, 4-Methyl-6-(piperazin-1-yl)-9H-pyrrolizino[1,2-b]quinoline-9,10(4H)-dione] | 0.05 to 5 mM | 1 to 10 µM | 0.05 to 5 mM | 0.05 to 5 mM | 0.05 to 5 mM | < 0.05 mM | 0.05 to 5 mM | 0.05 to 5 mM | 0.1 to 1 µM |  |  |  |  |  |  | 
O=C1c2c(nc3ccccc3c2OCc2ccc(F)c(F)c2F)-c2cccn21 [Compound 584b, 9-((2,3,4-trifluorobenzyl)oxy)-10H-pyrrolizino[1,2-b]quinolin-10-one] | 0.05 to 5 mM | 1 to 10 µM | < 0.05 mM | 0.05 to 5 mM | 0.05 to 5 mM | 0.05 to 5 mM | 0.05 to 5 mM | 5 to 20 mM | 0.1 to 1 µM |  |  |  |  |  |  | 
N#Cc1cccc2c(O)c3c(nc12)-c1cccn1C3=O [Compound 447b, 9-hydroxy-10-oxo-10H-pyrrolizino[1,2-b]quinoline-5-carbonitrile] | 0.05 to 5 mM | 1 to 10 µM | 0.05 to 5 mM | 0.05 to 5 mM | 0.05 to 5 mM | 0.05 to 5 mM | 0.05 to 5 mM | 0.05 to 5 mM | 0.1 to 1 µM |  |  |  |  |  |  | 
Cc1ccc(Cn2c3c(c(=O)c4ccccc42)C(=O)n2cccc2-3)cc1 [Compound 604a, 4-(4-Methylbenzyl)-9H-pyrrolizino[1,2-b]quinoline-9,10(4H)-dione] | 0.05 to 5 mM | 1 to 10 µM | < 0.05 mM | 0.05 to 5 mM | 0.05 to 5 mM | 0.05 to 5 mM | 0.05 to 5 mM | 0.05 to 5 mM | 1 to 10 µM |  |  |  |  |  |  | 
O=C1c2c(n(Cc3cccc(Cl)c3)c3ccccc3c2=O)-c2cccn21 [Compound 596a, 4-(3-Chlorobenzyl)-9H-pyrrolizino[1,2-b]quinoline-9,10(4H)-dione] | 0.05 to 5 mM | 1 to 10 µM | 0.05 to 5 mM | 0.05 to 5 mM | 0.05 to 5 mM | 0.05 to 5 mM | 0.05 to 5 mM | 0.05 to 5 mM | 1 to 10 µM |  |  |  |  |  |  | 
Cc1cccc2nc3c(c(O)c12)C(=O)n1cccc1-3 [Compound 678b, 9-hydroxy-8-methyl-10H-pyrrolizino[1,2-b]quinolin-10-one] |  | 1 to 10 µM |  |  |  |  |  |  | 1 to 10 µM | 0.05 to 5 mM | 0.05 to 5 mM | 0.05 to 5 mM | 0.05 to 5 mM | 0.05 to 5 mM | 0.05 to 5 mM | 0.05 to 5 mM
O=C1c2c(n(Cc3cc(C(F)(F)F)cc(C(F)(F)F)c3)c3ccccc3c2=O)-c2cccn21 [Compound 607a, 4-(3,5-Bis(trifluoromethyl)benzyl)-9H-pyrrolizino[1,2-b]quinoline-9,10(4H)-dione] | 0.05 to 5 mM | 0.1 to 1 µM | 0.05 to 5 mM | 0.05 to 5 mM | 0.05 to 5 mM | 0.05 to 5 mM | 0.05 to 5 mM | 0.05 to 5 mM | 1 to 10 µM |  |  |  |  |  |  | 
CC(C)(O)Cn1c2c(c(=O)c3ccccc31)C(=O)n1cccc1-2 [Compound 660a, 4-(2-Hydroxy-2-methylpropyl)-9H-pyrrolizino[1,2-b]quinoline-9,10(4H)-dione] | 0.05 to 5 mM | 1 to 10 µM | 0.05 to 5 mM | 0.05 to 5 mM | 0.05 to 5 mM | 0.05 to 5 mM | 0.05 to 5 mM | 0.05 to 5 mM | 1 to 10 µM |  |  |  |  |  |  | 
